Assay results reported in ChEMBL document CHEMBL1201862, “PubChem BioAssay data set” (2004).
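Values below derive from 48-hour exposures of cells grown in 96-well plates, with endpoints linearly interpolated between the two concentrations bracketing the appropriate inhibition level. GI50: concentration for 50% inhibition of growth.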 Calls of active or inactive are those of the source. Rule as the data show it: active = GI50 up to about 1.1 µM and inactive = higher.

Tests used:
Assay in all cases: growth of human tumour cells (NCI), 48 h
A498 = tested on: A498
A549 = tested on: A549
HCC 2998 = tested on: HCC 2998
HCT-116 = tested on: HCT-116
HT-29 = tested on: HT-29
LOX IMVI = tested on: LOX IMVI
MOLT-4 = tested on: MOLT-4
Malme-3M = tested on: Malme-3M
NCI-H23 = tested on: NCI-H23
NCI-H460 = tested on: NCI-H460
NCI-H522 = tested on: NCI-H522
OVCAR-4 = tested on: OVCAR-4
OVCAR-8 = tested on: OVCAR-8
SK-MEL-28 = tested on: SK-MEL-28
U-251 = tested on: U-251
M14 = tested on: M14
TK-10 = tested on: TK-10
786-0 = tested on: 786-0

Measured: GI50

O=NN(CCCl)C(=O)N[C@H]1CC[C@@H](CC(=O)O)CC1
inactive: A498 > 100 µM | A549 > 100 µM | HCC 2998 > 100 µM | HCT-116 > 100 µM | HT-29 > 100 µM | LOX IMVI > 54.2 µM | MOLT-4 44 µM | Malme-3M > 100 µM | NCI-H23 > 100 µM | NCI-H460 55.2 µM | NCI-H522 > 61.7 µM | OVCAR-4 > 100 µM | OVCAR-8 > 100 µM | SK-MEL-28 > 100 µM | U-251 74 µM

COC[C@@H]1Cc2cc(OC)c3c(c2[C@H](c2ccc(OC)c(OC)c2)[C@H]1COC)OCO3 [HYPOPHYLLANTHIN]
inactive: A498 > 100 µM | A549 69.8 µM | HCC 2998 > 100 µM | HCT-116 99.8 µM | HT-29 > 100 µM | LOX IMVI > 100 µM | M14 50 µM | MOLT-4 > 100 µM | Malme-3M 78.9 µM | NCI-H23 > 100 µM | NCI-H460 > 100 µM | NCI-H522 55.7 µM | OVCAR-8 > 100 µM | SK-MEL-28 > 100 µM | TK-10 > 100 µM | U-251 > 100 µM

CCOC(=O)C1=C(C)N(NC(=O)OC)C2(N)N(NC(=O)OC)C(C)=C(C(=O)OCC)C12C#N (configuration not stated)
inactive: 786-0 > 100 µM | A498 > 100 µM | A549 > 100 µM | HCC 2998 > 100 µM | HCT-116 > 100 µM | HT-29 > 100 µM | LOX IMVI > 100 µM | M14 > 100 µM | MOLT-4 > 100 µM | Malme-3M > 100 µM | NCI-H460 > 100 µM | NCI-H522 > 100 µM | OVCAR-4 > 100 µM | OVCAR-8 > 100 µM | SK-MEL-28 > 100 µM | U-251 > 100 µM

C=CCC12CC(=O)CCC1CC(=O)C2 (configuration not stated)
inactive: 786-0 > 100 µM | A498 > 100 µM | A549 > 100 µM | HCC 2998 > 100 µM | HCT-116 > 100 µM | M14 > 100 µM | MOLT-4 > 100 µM | Malme-3M > 100 µM | NCI-H460 > 100 µM | NCI-H522 > 100 µM | OVCAR-4 > 100 µM | OVCAR-8 > 100 µM | SK-MEL-28 > 100 µM | TK-10 > 100 µM | U-251 > 100 µM

O=C(c1ccccc1)c1ccc2cccc(OC3OC(CO)C(O)C(O)C3O)c2n1 (configuration not stated)
inactive: 786-0 > 100 µM | A498 26.8 µM | A549 > 100 µM | HCC 2998 > 100 µM | HCT-116 > 100 µM | HT-29 > 100 µM | LOX IMVI > 100 µM | M14 > 100 µM | MOLT-4 > 100 µM | Malme-3M > 100 µM | NCI-H23 > 100 µM | NCI-H460 74.6 µM | NCI-H522 > 100 µM | OVCAR-4 > 100 µM | OVCAR-8 73.6 µM | SK-MEL-28 > 100 µM | TK-10 > 100 µM | U-251 > 100 µM

OCC1O[C@H](O[C@@H]2CCCN3CC(O)C(O)[C@@H]23)C(O)C(O)C1O (some centres not stated)
inactive: A498 > 100 µM | A549 > 100 µM | HCC 2998 > 100 µM | HCT-116 > 100 µM | HT-29 > 100 µM | M14 > 100 µM | MOLT-4 > 100 µM | Malme-3M > 100 µM | NCI-H23 > 100 µM | NCI-H522 > 100 µM | OVCAR-4 > 100 µM | OVCAR-8 > 100 µM | SK-MEL-28 > 100 µM | TK-10 > 100 µM | U-251 > 100 µM

O=C(O)CNS(=O)(=O)c1ccc(NC(=O)c2ccc([N+](=O)[O-])cc2)cc1
inactive: 786-0 > 100 µM | A498 > 100 µM | A549 > 100 µM | HCC 2998 > 100 µM | HT-29 > 100 µM | LOX IMVI > 100 µM | M14 > 100 µM | MOLT-4 > 100 µM | Malme-3M > 100 µM | NCI-H23 > 100 µM | NCI-H460 > 100 µM | NCI-H522 79.6 µM | OVCAR-4 > 100 µM | OVCAR-8 > 100 µM | SK-MEL-28 > 100 µM | TK-10 > 100 µM | U-251 > 100 µM

O=C(/C=C/C1C(=O)NC(=O)NC1=O)CC(=O)C(=O)Nc1cc(Cl)c(Cl)cc1Cl
inactive: 786-0 > 100 µM | A498 > 100 µM | A549 > 100 µM | HCC 2998 > 100 µM | HCT-116 > 100 µM | HT-29 > 100 µM | LOX IMVI > 100 µM | M14 > 100 µM | MOLT-4 > 100 µM | Malme-3M > 100 µM | NCI-H23 > 100 µM | NCI-H460 > 100 µM | NCI-H522 > 100 µM | OVCAR-4 > 100 µM | OVCAR-8 > 100 µM | SK-MEL-28 > 100 µM | TK-10 > 100 µM | U-251 > 100 µM

COc1ccc(C(=O)C(C(=O)CCC(=O)Nc2cccc(C(F)(F)F)c2)c2ccccc2)cc1 (configuration not stated)
inactive: 786-0 > 100 µM | A498 > 100 µM | A549 65.9 µM | HCC 2998 > 100 µM | HCT-116 80.7 µM | HT-29 65.6 µM | M14 > 100 µM | MOLT-4 43.1 µM | Malme-3M > 100 µM | NCI-H23 44.8 µM | NCI-H460 > 100 µM | NCI-H522 32.1 µM | OVCAR-4 37.7 µM | OVCAR-8 > 100 µM | SK-MEL-28 > 100 µM | TK-10 > 100 µM | U-251 > 100 µM
